Reference: ChEMBL document CHEMBL1151136, “Searching for Bioactive Compounds: Various Strategies” (J Nat Prod, 1990)
≈ marks a conversion by molar mass, not a printed value.

Tests used:
[1] = Cytotoxicity against ovarian cancer cells; type: functional; settings: Cancer cell lines; read-out: ID50 (the source's name)
Penicillium citrinum = experiment: Antimicrobial activity against Penicillium citrinum; type: functional
Staphylococcus aureus = experiment: Antimicrobial activity against Staphylococcus aureus; type: functional
Bacillus subtilis = experiment: Antimicrobial activity against Bacillus subtilis; type: functional
[2] = Cytotoxicity against CHL cells; type: cell-based, Cricetulus griseus; settings: chinese hamster, read-out: LD50 (the source's name)

Structure (SMILES) | MIC (Staphylococcus aureus) | MIC (Bacillus subtilis) | also measured
C=C/C(C)=C/C[C@]1(C)[C@H]2C[C@@H](O)C=C3[C@H](OC(C)=O)O[C@@H](OC(C)=O)[C@@]32[C@H](OC(=O)/C=C/c2ccccc2)C[C@@H]1C | – | – | IC50 [1]: 35 µg/mL (≈ 62 µM)
CC(=O)O[C@@H]1[C@H](OC(C)=O)[C@@H](Oc2c(-c3ccc(O)cc3)oc3cc(O)cc(O)c3c2=O)O[C@H](C)[C@H]1OC(=O)/C=C/c1ccc(O)cc1 | – | – | MIC (Penicillium citrinum): < 30 µg/mL
C=C(CC(=O)O)C(=O)C[C@@]1(C)[C@H](C)CC[C@@]2(C)C(C)=CCC[C@H]12 | 20 µg/mL (≈ 62.8 µM) | 25 µg/mL (≈ 78.5 µM) | –
C=C/C(C)=C/C[C@@]1(C)[C@@H](C)[C@H](OC(=O)CCCCCCCCC)[C@@H](OC(C)=O)[C@]23C(=C[C@H](O)C[C@@]21C)[C@@H](OC(C)=O)O[C@@H]3OC(C)=O | – | – | CC50 [2]: 770 nM
CN[C@@H]1[C@H](O[C@H]2[C@H](O[C@H]3[C@H](O)[C@@H](O)[C@H](N=C(N)N)[C@@H](O)[C@@H]3N=C(N)N)O[C@@H](C)[C@]2(O)C=O)O[C@@H](CO)[C@H](O)[C@H]1O.CN[C@@H]1[C@H](O[C@H]2[C@H](O[C@H]3[C@H](O)[C@@H](O)[C@H](N=C(N)N)[C@@H](O)[C@@H]3N=C(N)N)O[C@@H](C)[C@]2(O)C=O)O[C@@H](CO)[C@H](O)[C@H]1O.O=S(=O)(O)O.O=S(=O)(O)O.O=S(=O)(O)O [STREPTOMYCIN SULFATE] | 6.3 µg/mL | 12.5 µg/mL | –
